This note sets out measurements from patent US20090305993A1, “METHODS AND COMPOSITION FOR THE TREATMENT OF GASTROINTESTINAL DISORDERS” (IRONWOOD PHARMACEUTICALS, INC., priority 2006, published 2009).

The subject of series [1] is healthy males and postmenopausal females. Kind of series: single oral dose study in humans, bowel habits (BSFS). Type of series: in vivo, human. The method, then:
Single doses of 30, 100, 300, 1000 or 3000 μg of chemically synthesized SEQ ID NO:3 were given to 30 healthy males and postmenopausal females. At each dose level (100 μg was done twice) SEQ ID NO:3 or placebo (vehicle) was administered orally in 5.0 mL 50 mM phosphate buffer (pH 6.0) plus 3×20 mL water rinses and 175 mL water after at least a 10-hour fast. In each dosing group, subjects were randomized to receive either placebo (1 subject) or SEQ ID NO:3 (3-4 subjects). Bowel habits (including Bristol Stool Form Scale score (BSFS; FIG. 14a), stool frequency, and stool weight) were evaluated for each collected bowel movement 48 hours prior to dose and up to approximately 48 hours postdose.

Series [2] can be described thus: oral bioavailability in mice, radioimmunoassay (RIA). The conditions noted are these: female, CD-1, mouse, in vivo. The method, then:
Oral bioavailability was also determined using a radioimmunoassay (RIA) detection method. Female CD-1 mice (Charles River, Wilmington, Mass.) weighing approximately 25 g (7-8 weeks old) or female CD rats (Charles River, Wilmington, Mass.) weighing approximately 153 g were included in this study. Monoclonal antibody, 20C1 (Brandwein et al. 1985 Infect Immun. 47:242-246), which recognizes SEQ ID NO:7 and 1251 labeled—SEQ ID NO:7, a labeled tracer, were used in these experiments. The labeled tracer was purified by HPLC using a Waters C-18u Bondapak® column (25 cm) previously equilibrated with 10 mM ammonium acetate pH 5.8. […] Blood was drawn from all dosed animals by retro-orbital eye bleeding at specific intervals and test compound levels were analyzed by radioimmunoassay (RIA). […] Radioactivity was measured in a LS 6500 scintillation counter (Beckman-Coulter). The binding efficiency is defined as the percent radioactivity in the B0 sample compared to the input counts. The percent bound in each sample was calculated by the equation: […]
A standard curve was prepared by plotting % B/B0 as a function of the log SEQ ID NO:3 concentration. […] The area under the curve from T=0 to 4 hours (AUC0-4h) was calculated by the software for both p.o. and i.v. dosed animals. […] Oral Bioavailability (F) is calculated using the equation: […]

In another series the target is chymotrypsin (Bos taurus, UniProt P00766). The conditions noted are these: 37° C., up to 24 h.

Where a SMILES comes first, the peptide text is derived from it. Bridges are numbered along the chain shown (N, C = ends).

Procedure for chymotrypsin: The stability of SEQ ID NO:3 in the presence of several mammalian digestive enzymes was determined. SEQ ID NO:3 was exposed to a variety of in vitro conditions including digestive enzymes and low ph environments designed to simulate gastric fluid. SEQ ID NO:3 was incubated with chymotrypsin, trypsin, pepsin, aminopeptidase, carboxypeptidase A, and simulated gastric fluid (sgf) at ph 1.0. Samples were collected at 0, 3, and 24 h for all conditions except pepsin digestion and the SGF. For the latter two conditions, samples were obtained at 0, 1, and 3 h. Negative control samples were prepared for initial and final time points. A separate, positive activity control was run in parallel to SEQ ID NO:3. All samples were analyzed by LC/MS
500 μl samples of 0.01 mg/mL SEQ ID NO:3 and guanylin (Sigma-Aldrich, G116; positive control) were prepared in the chymotrypsin reaction buffer (100 mM Tris-HCl, 10 mM CaCl2, pH 7.5) in 2 mL eppendorf tubes. Zero and 24 h control samples were prepared by adding 5 μL of a 10 mM chymostatin (Sigma-Alrich, C7268; a chymotrypsin inhibitor) stock for a final concentration of 100 μM. All samples were incubated at 37° C. for 5 min. […] These standards were used to generate a standard curve for quantification of samples. […]

On to `C[C@@H]1NC(=O)[C@@H]2CCCN2C(=O)[C@H](CC(N)=O)NC(=O)[C@@H]2CSSC[C@H](N)C(=O)N[C@H]3CSSC[C@H](NC1=O)C(=O)N[C@@H]([C@@H](C)O)C(=O)NCC(=O)N[C@H](C(=O)N[C@@H](Cc1ccc(O)cc1)C(=O)O)CSSC[C@H](NC(=O)[C@H](Cc1ccc(O)cc1)NC(=O)[C@H](CCC(=O)O)NC3=O)C(=O)N2` [SEQ ID NO:3] (H-CCEYCCNPACTGCY-OH; disulfide 1-6, 2-10, 5-13; N-terminus and C-terminus assumed), for which the “percent of subjects with at least a 2-point increase in BSFS consistency score” value in series [1] (1000 μg dose group, mean pre-dose compared to peak 48 hours post-dose, FIG. 14c) is “highest percent of subjects”. Moreover, the “BSFS post-dose scores versus dose” value in series [1] (single oral dose 30-3000 μg) is “Higher BSFS post-dose scores correlated with a higher dose”. Further, the “maximum BSFS score” value in series [1] (single oral dose 30-3000 μg, FIG. 14b) is reported as “increase”. Further, in series [2] (8 mg/kg oral, read-out: AUCp.o.,(0-4h)), the AUC was ≤ 11.5 ng·h/mL. In addition, the bioavailability in series [2] (oral, 8 mg/kg, over 4 hours, read-out: bioavailability (F)) was ≤ 0.04%. In addition, the “Cleavage of SEQ ID NO: 3 by proteolytic substance” value on chymotrypsin is “not detectable”.
